Measurements: US6107284A, “Water-soluble derivatives of epipodophyllotoxin, process for their preparation, their use as medicinal products and their intended use in anti-cancer treatments” (Pierre Fabre Medicament, priority 1994, dated 2000)
Counter-ions that a name gives are not always drawn. Like-named read-outs stand apart in the source and are kept apart here.

What was measured:
[1] = target: topoisomerase II (Cricetulus griseus, UniProt P41515); assay: Test of inhibition of the activity of topoisomerase II; format: biochemical; conditions: for IC50: in vitro, read-out: Test of inhibition of the activity of topoisomerase II (ED50 M)
topoisomerase II, sequence (P41515 whole entry): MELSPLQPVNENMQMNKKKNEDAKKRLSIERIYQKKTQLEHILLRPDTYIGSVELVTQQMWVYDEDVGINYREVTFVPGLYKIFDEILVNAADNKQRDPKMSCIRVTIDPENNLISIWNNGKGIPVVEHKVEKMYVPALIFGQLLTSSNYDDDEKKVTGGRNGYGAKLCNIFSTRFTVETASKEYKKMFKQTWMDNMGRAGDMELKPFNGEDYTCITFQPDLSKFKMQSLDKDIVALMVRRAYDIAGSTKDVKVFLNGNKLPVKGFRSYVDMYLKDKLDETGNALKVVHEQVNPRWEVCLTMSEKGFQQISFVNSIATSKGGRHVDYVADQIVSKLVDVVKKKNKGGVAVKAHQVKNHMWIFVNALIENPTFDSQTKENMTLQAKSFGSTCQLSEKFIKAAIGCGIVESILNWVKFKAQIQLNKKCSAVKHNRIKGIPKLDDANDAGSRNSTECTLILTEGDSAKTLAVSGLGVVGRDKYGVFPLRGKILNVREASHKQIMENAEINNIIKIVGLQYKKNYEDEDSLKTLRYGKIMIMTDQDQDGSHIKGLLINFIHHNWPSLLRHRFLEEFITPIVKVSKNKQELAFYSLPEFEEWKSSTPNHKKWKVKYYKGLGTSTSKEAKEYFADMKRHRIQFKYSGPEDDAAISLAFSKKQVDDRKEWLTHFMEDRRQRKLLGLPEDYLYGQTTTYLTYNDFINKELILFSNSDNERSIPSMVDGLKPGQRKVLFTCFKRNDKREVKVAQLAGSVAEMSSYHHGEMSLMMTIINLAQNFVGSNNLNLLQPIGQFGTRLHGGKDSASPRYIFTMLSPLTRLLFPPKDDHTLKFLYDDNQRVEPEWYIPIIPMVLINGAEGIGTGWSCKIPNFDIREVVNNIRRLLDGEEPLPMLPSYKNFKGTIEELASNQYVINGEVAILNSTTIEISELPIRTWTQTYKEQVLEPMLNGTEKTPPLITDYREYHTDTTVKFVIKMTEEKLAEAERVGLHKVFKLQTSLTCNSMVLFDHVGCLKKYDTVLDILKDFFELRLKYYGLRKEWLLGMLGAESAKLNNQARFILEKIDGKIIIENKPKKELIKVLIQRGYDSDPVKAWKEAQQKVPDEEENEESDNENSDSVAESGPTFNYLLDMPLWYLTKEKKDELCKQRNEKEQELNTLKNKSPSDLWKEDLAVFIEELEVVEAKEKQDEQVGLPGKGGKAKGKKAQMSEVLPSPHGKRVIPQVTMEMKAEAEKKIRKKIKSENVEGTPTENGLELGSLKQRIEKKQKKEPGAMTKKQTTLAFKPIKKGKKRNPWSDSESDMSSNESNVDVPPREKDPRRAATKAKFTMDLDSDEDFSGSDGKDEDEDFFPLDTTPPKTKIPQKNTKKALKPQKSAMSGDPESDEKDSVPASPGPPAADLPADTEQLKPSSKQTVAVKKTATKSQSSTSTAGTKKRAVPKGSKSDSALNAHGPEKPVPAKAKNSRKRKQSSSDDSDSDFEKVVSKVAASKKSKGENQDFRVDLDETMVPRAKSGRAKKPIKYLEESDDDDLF
From the text: Measurement of the inhibition of the activity of topoisomerase II is made according to the procedure described in the literature: "Nuclear topoisomerase II levels correlate with the sensitivity of mammalian cells to intercalating Agents and Epipodophyllotoxins", I. D. Hickson et al., J. Biol. Chem. (1988), 263, 17724.

[2] = background, known drugs; cited from earlier work
[3] = Measurement of the water-solubility of the salts; format: physicochemical; conditions: read-out: % solubility (weight/volume) expressed in g per 100 ml of water
From the text: The amorphous or crystalline salts are obtained by simple freeze-drying. [drawing 4] Measurement of the Water-Solubility
The solubility in water of the salts of the phosphate or carboxylate derivatives by addition of physiologically acceptable organic amines such as, for example, N-methylglucamine, triethanolamine or lysine, or the salts with inorganic cations such as sodium, obtained in lyophilized form or by extemporaneous addition of a base to the free acid compound, gave the following results by way of example.

Row | Compound | IC50 [1] [µM] | solubility ([3]; N-methylglucamine salt) [mg/mL] | also measured
1 | COc1cc([C@@H]2c3cc4c(cc3[C@@H](O[C@@H]3O[C@@H]5CO[C@@H](C)O[C@H]5[C@H](O)[C@H]3O)[C@H]3COC(=O)[C@H]23)OCO4)cc(OC)c1OP(=O)(O)O [Etopofos, reference compound] | > 100 |  | in vitro activity compared with etoposide (in words) ([1]; relative to etoposide): loss of in vitro activity
2 | COc1cc([C@@H]2c3cc4c(cc3[C@@H](O[C@@H]3O[C@@H]5CO[C@@H](C)O[C@H]5[C@H](O)[C@H]3O)[C@H]3COC(=O)[C@H]23)OCO4)cc(OC)c1O [Etoposide, reference compound] | 56 |  | water-solubility (in words) [2]: lack of water-solubility
3 | COc1cc([C@@H]2c3cc4c(cc3[C@@H](O[C@@H]3O[C@@H]5CO[C@@H](C)O[C@H]5[C@H](OC(=O)COc5ccccc5)[C@H]3OC(=O)COc3ccccc3)[C@H]3COC(=O)[C@H]23)OCO4)cc(OC)c1OP(=O)(O)O [Example 1, 4'-demethyl-4-O-(2,3-bisphenoxyacetyl-4,6-ethylidene-β-D-glucosyl)epipodophyllotoxin-4'-deoxy-4'-phosphate] | 5.6 | 5 | 
4 | COc1cc([C@@H]2c3cc4c(cc3[C@@H](O[C@@H]3O[C@@H]5CO[C@@H](C)O[C@H]5[C@H](OC(=O)COc5ccc(OC(F)(F)F)cc5)[C@H]3OC(=O)COc3ccc(OC(F)(F)F)cc3)[C@H]3COC(=O)[C@H]23)OCO4)cc(OC)c1OP(=O)(O)O [Example 3, 4'-demethyl-4-O-(2,3-bis-(4-trifluoromethoxyphenoxyacetyl)-4,6-ethylidene-β-D-gluocosyl)epipodophyllotoxin-4'-deoxy-4'-phosphate, bis(N-methylglucamine) Salt] | 0.32 | 50 | 
5 | COc1cc([C@@H]2c3cc4c(cc3[C@@H](O[C@@H]3O[C@@H]5CO[C@@H](C)O[C@H]5[C@H](OC(=O)COc5ccc(F)cc5)[C@H]3OC(=O)COc3ccc(F)cc3)[C@H]3COC(=O)[C@H]23)OCO4)cc(OC)c1OP(=O)(O)O [Example 4, 4'-demethyl-4-O-(2,3-bis(4-fluorophenoxyacetyl)-4,6-ethylidene-β-D-glucosyl)epipodophyllotoxin-4'-deoxy-4'-phosphate bis(N-methylglucamine) Salt] | 1.8 | 100 | 
6 | COc1cc([C@@H]2c3cc4c(cc3[C@@H](O[C@@H]3O[C@@H]5CO[C@@H](C)O[C@H]5[C@H](OC(=O)COc5ccc(OP(=O)(O)O)cc5)[C@H]3OC(=O)COc3ccc(OP(=O)(O)O)cc3)[C@H]3COC(=O)[C@H]23)OCO4)cc(OC)c1OC(=O)COc1ccc(OP(=O)(O)O)cc1 [Example 6, 4'-(4-phosphonooxyphenoxyacetyl)-4'-demethyl-4-O-(2,3-bis(4-phosphonooxyphenoxyacetyl)-4,6-ethylidene-β-D-glucosyl)epipodophyllotoxin] | 0.32 | 100 | solubility ([3]; Sodium salt): 10 mg/mL; solubility ([3]; lysine salt): 200 mg/mL; solubility ([3]; triethanolamine salt): 200 mg/mL
7 | COc1cc([C@@H]2c3cc4c(cc3[C@@H](O[C@@H]3O[C@@H]5CO[C@@H](C)O[C@H]5[C@H](OC(=O)COc5ccc(OP(=O)(O)O)cc5)[C@H]3OC(=O)COc3ccc(OP(=O)(O)O)cc3)[C@H]3COC(=O)[C@H]23)OCO4)cc(OC)c1OP(=O)(O)O [Example 7, 4'-demethyl-4-O-(2,3-bis(4-phosphonooxyphenoxyacetyl)-4,6-ethylidene-β-D-glucosyl)epipodophyllotoxin-4'-deoxy-4'-phosphate] | 56 | 100 | 
8 | COc1cc([C@@H]2c3cc4c(cc3[C@@H](O[C@@H]3O[C@@H]5CO[C@@H](C)O[C@H]5[C@H](OC(=O)COc5ccc(O)cc5)[C@H]3OC(=O)COc3ccc(O)cc3)[C@H]3COC(=O)[C@H]23)OCO4)cc(OC)c1OC(=O)N(CC(=O)O)CC(=O)O [Example 11, 4'-(dicarboxymethylaminocarbonyl)-4'-demethyl-4-O-(2,3-bis(p-hydroxyphenoxyacetyl)-4,6-ethylidene-β-D-glucosyl)epipodophyllotoxin] | 5.6 | 100 | 
9 | COc1cc([C@@H]2c3cc4c(cc3[C@@H](O[C@@H]3O[C@@H]5CO[C@@H](C)O[C@H]5[C@H](OC(=O)CS(=O)(=O)c5ccccc5)[C@H]3OC(=O)CS(=O)(=O)c3ccccc3)[C@H]3COC(=O)[C@H]23)OCO4)cc(OC)c1OP(=O)(O)O [Example 21, 4'-demethyl-4'-deoxy-4'-phosphate-4-O-(2,3-bis(phenylsulfonylacetyl)-4,6-ethylidene-β-D-glucosyl)epipodophyllotoxin] | 5.6 | 100 | 
10 | COc1cc([C@@H]2c3cc4c(cc3[C@@H](O[C@@H]3O[C@@H]5CO[C@@H](C)O[C@H]5[C@H](OC(=O)COc5ccc(OCC(=O)O)cc5)[C@H]3OC(=O)COc3ccc(OCC(=O)O)cc3)[C@H]3COC(=O)[C@H]23)OCO4)cc(OC)c1OC(=O)COc1ccc(OCC(=O)O)cc1 [Example 26, 4'-demethyl-4'-carboxymethoxyphenoxyacetyl-4-O-(2,3-bis(4-carboxymethoxyphenoxyacetyl)-4,6-ethylidene-β-D-glucosyl)epipodophyllotoxin] | 5.6 | 100 | 
11 | COc1cc([C@@H]2c3cc4c(cc3[C@@H](O[C@@H]3O[C@@H]5CO[C@@H](C)O[C@H]5[C@H](OC(=O)COc5ccc(Cl)cc5)[C@H]3OC(=O)COc3ccc(Cl)cc3)[C@H]3COC(=O)[C@H]23)OCO4)cc(OC)c1OP(=O)(O)O [Example 27, 4'-demethyl-4'-deoxy-4'-phosphate-4-O-(2,3-bis(4-chlorophenoxyacetyl)-4,6-ethylidene-β-D-glucosyl)epipodophyllotoxin] | 0.76 | 5 | 
12 | COc1cc([C@@H]2c3cc4c(cc3[C@@H](O[C@@H]3O[C@@H]5CO[C@@H](c6cccs6)O[C@H]5[C@H](O)[C@H]3O)[C@H]3COC(=O)[C@H]23)OCO4)cc(OC)c1O [teniposide] |  |  | water-solubility (in words) [2]: lack of water-solubility
